Laboratory results published in patent US8911713B2, “Method for preventing or treating skin tumor” (Galderma Research & Development, priority 2010, dated 2014).
Read-outs that look alike come from different tables or passages of the source.

Tested on: UV-induced skin tumor
Conditions: for Tumor Yield (≧1 mm): average number of tumors per survivor; for Median Week to Tumor (≧1 mm): 100 μL/mouse, 5 days/wk, + 600 RBU/week UVR, 40 weeks + 12 weeks observation
Protocol: Albino hairless SKH1-hr mice (36/sex/group) were treated for 40 weeks with UVR and brimonidine gel or vehicle according to the design in table 11. […] Topical treatments were performed approximately one hour before UVR on Monday, Wednesday and Friday of each week and approximately one hour after UVR Tuesday and Thursday of each week.

Q: Which results are given for `Brc1c(NC2=NCCN2)ccc2nccnc12` [Brimonidine, (5-Bromo-quinoxalin-6-yl)-(4,5-dihydro-1H-imidazol-2-yl)-amine]?
A: Reduction of tumor yield (≧1 mm) compared to the vehicle group (0.18% topical + 600 RBU/week UVR): 1.7 fold; Members of the group that acquired one or more qualifying tumors (≧1 mm) within the 52-week study period (1% topical + 600 RBU/week UVR): less than one-half; Reduction of tumor yield (≧1 mm) compared to the vehicle group (1% topical + 600 RBU/week UVR): 4.7 fold; Members of the group that acquired one or more qualifying tumors (≧1 mm) within the 52-week study period (2% topical + 600 RBU/week UVR): less than one-half; Reduction of tumor yield (≧1 mm) compared to the vehicle group (2% topical + 600 RBU/week UVR): 8.1 fold; Tumor Yield (≧1 mm) (Group 2: 0.18% topical + 600 RBU/week UVR): 2.40 tumors per survivor; Median Week to Tumor (≧1 mm) (Group 2: 0.18% topical): 48 Week; Tumor Yield (≧1 mm) (Group 3: 1% topical + 600 RBU/week UVR): 0.85 tumors per survivor; Median Week to Tumor (≧1 mm) (Group 3: 1% topical): >52 Week; Tumor Yield (≧1 mm) (Group 4: 2% topical + 600 RBU/week UVR): 0.49 tumors per survivor; Median Week to Tumor (≧1 mm) (Group 4: 2% topical): >52 Week; UV-induced skin tumor formation (topical 0.18%, 1% and 2% + 600 RBU/week UVR): dose-dependent delay; Sizes of tumors (tumor prevalence by size, FIG. 1) (with increasing concentration, topical, sexes combined): the sizes of tumors were also reduced
